Results on 5 compounds are retold here after US10335409B2 (priority 2012, dated 2019).

Assay [1] concerns the target HCV NS3 protease domain genotype 3a (Hepatitis C virus genotype 3a, UniProt Q81258). In words: Ki determination, NS3 protease genotype 3a (fluorogenic depsipeptide substrate). The format is biochemical. As to conditions: 200 pM enzyme, NS4A peptide. An excerpt:
Purified NS3 protease domain (amino acids 1-181) of the genotype 1b and 3a virus were generated as above. The internally quenched fluorogenic depsipeptide substrate Ac-DED(Edans)-EEAbuΨ[COO]ASK(Dabcyl)-NH2 and a synthetic peptide containing the hydrophobic core residues of the NS4A protein cofactor ([…]; NS4A peptide) were obtained from Anaspec, Inc. (San Jose, Calif.). Other chemicals and biochemicals were of reagent grade or better and were purchased from standard suppliers.
Reactions were run at room temperature in buffer consisting of 50 mM HEPES, 40% glycerol, 0.05% Triton X-100, 10 mM DTT, and 10% DMSO. The final assay solutions contained 50 pM NS3 genotype 1 b protease or 200 pM genotype 3a protease, 20 μM NS4A peptide, and 4 μM substrate (genotype 1b) or 2 μM substrate (genotype 3a). Inhibitor concentrations varied from 100 nM to 5 pM in 3-fold dilutions, and no-inhibitor controls were included.
Compound dilutions were made in DMSO at 20× final concentration. Reaction mixtures were prepared in 96-well assay plates. A solution of enzyme and NS4A peptide in assay buffer (25 μL volume with both reagents at 4× final concentration) was mixed with 45 μL assay buffer and 5 μL of either inhibitor or DMSO, and pre-incubated at room temperature for 1 hour. The reaction was started by addition of 25 μL substrate solution at 4× final concentration. Plates were mixed vigorously for 5-10 seconds and reactions were allowed to proceed for 90 minutes, fluorescence was measured every 30 s between 90 and 120 minutes reaction time using a Tecan InfiniTe M1000 or PerkinElmer Envision multimode plate reader with an excitation wavelength of 340 nm and an emission wavelength of 490 nm.
Rates were calculated from the progress curves at steady state, in the time frame of 90-120 minutes after addition of substrate. To determine the Ki, rates were plotted as a function of inhibitor concentration, and the data were fit with equation 1 (Morrison, J. F., Biochimica et Biophysica Acta 1969, 185, 269-286) to calculate Ki^app using GraphPad Prism 5. Active fraction of enzyme was determined by active site titration with known potent inhibitors. Ki was calculated from Ki^app/(1+[[S]/Km]).

The subject of assay [2] is genotype 1a (H77) wild type transient HCV replicon in Huh-7-derived cells. The assay can be described thus: Transient-transfected HCV replicon EC50, genotype 1a wild type. The following applies: transient-transfected replicon genotype 1a wild type, 72 h, read-out: EC50 1A WT. The format is cell-based, hepatitis C virus.
The subject of assay [3] is genotype 3a (S52) wild type transient HCV replicon in Huh-7-derived cells. The assay can be described thus: Transient-transfected HCV replicon EC50, genotype 3a wild type. The format is cell-based, hepatitis C virus. As to conditions: transient-transfected replicon genotype 3a wild type, 72 h, read-out: EC50 3A WT.
In assay [4] the test system is genotype 1b (Con1) wild type transient HCV replicon in Huh-7-derived cells. In words: Transient-transfected HCV replicon EC50, genotype 1b wild type. The assay is classed as cell-based, hepatitis C virus. As to conditions: transient-transfected replicon genotype 1b wild type, 72 h, read-out: EC50 1B WT. (A replicon is a self-replicating genome or part of one, used to study replication in cells.)

Assay [5] relates to genotype 4a (ED43) stable HCV replicon in Huh-7-derived cells. The assay can be described thus: Stable subgenomic HCV replicon EC50, genotype 4a (Renilla luciferase). The assay is classed as cell-based, hepatitis C virus. As to conditions: 72 h, read-out: EC50 4A RLUC. In outline:
(§1)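 Compounds, three-fold diluted, were applied to Huh-7-derived cells harbouring luciferase replicons (genotype 1a H77, 1b Con1, 2a JFH-1, 4a ED43, with strain-specific adaptive mutations). Seventy-two hours later, intracellular replication was gauged by Renilla luciferase activity and EC50 derived by regression.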

Assay [6] concerns genotype 1a NS3/4a protease inhibitor resistant variant R155K transient HCV replicon in Huh-7-derived cells. The assay can be described thus: Transient-transfected HCV replicon EC50, genotype 1a R155K. The format is cell-based, hepatitis C virus. As to conditions: 72 h.
Assay [7] relates to genotype 1a (H77) stable HCV replicon in Huh-7-derived cells. In words: Stable subgenomic HCV replicon EC50, genotype 1a (Renilla luciferase). The following applies: stable replicon genotype 1a, 72 h, read-out: EC50 1A RLUC. The assay is classed as cell-based, hepatitis C virus. In outline:
as §1

Assay [8] concerns genotype 3a (S52) stable HCV replicon in Huh-7-derived cells. The assay can be described thus: Stable subgenomic HCV replicon EC50, genotype 3a (Renilla luciferase). As to conditions: 72 h, read-out: EC50 3A RLUC. The format is cell-based, hepatitis C virus.
Assay [9] relates to genotype 1b (Con1) stable HCV replicon in Huh-7-derived cells. The assay can be described thus: Stable subgenomic HCV replicon EC50, genotype 1b (Renilla luciferase). The format is cell-based, hepatitis C virus. The following applies: stable replicon genotype 1b, 72 h, read-out: EC50 1B RLUC. The essentials:
as §1

For assay [10], the system named is genotype 2a (JFH-1) stable HCV replicon in Huh-7-derived cells. The assay can be described thus: Stable subgenomic HCV replicon EC50, genotype 2a (Renilla luciferase). The format is cell-based, hepatitis C virus. The following applies: stable replicon genotype 2a, 72 h, read-out: EC50 2A RLUC. In outline:
as §1

The subject of assay [11] is genotype 1b NS3/4a protease inhibitor resistant variant D168A transient HCV replicon in Huh-7-derived cells. The assay can be described thus: Transient-transfected HCV replicon EC50, genotype 1b D168A. The assay is classed as cell-based, hepatitis C virus. The following applies: 72 h.
The mark [12] stands for this setting: stable replicon genotype 4a, Renilla luciferase.
Setting [13] is: transient-transfected replicon genotype 1a R155K resistant variant, read-out: EC50 1A R155K.
[14] abbreviates: stable replicon genotype 3a, Renilla luciferase.
[15] abbreviates: transient-transfected replicon genotype 1b D168A resistant variant, read-out: EC50 1B D168A.
Where [16] appears, read: Hepatitis C virus, read-out: EC50 1A R155K, transient-transfected replicon genotype 1a R155K resistant variant, 72 h.
Setting [17] is: Hepatitis C virus, read-out: EC50 1B D168A, transient-transfected replicon genotype 1b D168A resistant variant, 72 h.

Like-named read-outs stand apart in the source and are kept apart here.

Chain of HCV NS3 protease domain genotype 3a (Q81258 whole entry, looked up, the tested form may be a part): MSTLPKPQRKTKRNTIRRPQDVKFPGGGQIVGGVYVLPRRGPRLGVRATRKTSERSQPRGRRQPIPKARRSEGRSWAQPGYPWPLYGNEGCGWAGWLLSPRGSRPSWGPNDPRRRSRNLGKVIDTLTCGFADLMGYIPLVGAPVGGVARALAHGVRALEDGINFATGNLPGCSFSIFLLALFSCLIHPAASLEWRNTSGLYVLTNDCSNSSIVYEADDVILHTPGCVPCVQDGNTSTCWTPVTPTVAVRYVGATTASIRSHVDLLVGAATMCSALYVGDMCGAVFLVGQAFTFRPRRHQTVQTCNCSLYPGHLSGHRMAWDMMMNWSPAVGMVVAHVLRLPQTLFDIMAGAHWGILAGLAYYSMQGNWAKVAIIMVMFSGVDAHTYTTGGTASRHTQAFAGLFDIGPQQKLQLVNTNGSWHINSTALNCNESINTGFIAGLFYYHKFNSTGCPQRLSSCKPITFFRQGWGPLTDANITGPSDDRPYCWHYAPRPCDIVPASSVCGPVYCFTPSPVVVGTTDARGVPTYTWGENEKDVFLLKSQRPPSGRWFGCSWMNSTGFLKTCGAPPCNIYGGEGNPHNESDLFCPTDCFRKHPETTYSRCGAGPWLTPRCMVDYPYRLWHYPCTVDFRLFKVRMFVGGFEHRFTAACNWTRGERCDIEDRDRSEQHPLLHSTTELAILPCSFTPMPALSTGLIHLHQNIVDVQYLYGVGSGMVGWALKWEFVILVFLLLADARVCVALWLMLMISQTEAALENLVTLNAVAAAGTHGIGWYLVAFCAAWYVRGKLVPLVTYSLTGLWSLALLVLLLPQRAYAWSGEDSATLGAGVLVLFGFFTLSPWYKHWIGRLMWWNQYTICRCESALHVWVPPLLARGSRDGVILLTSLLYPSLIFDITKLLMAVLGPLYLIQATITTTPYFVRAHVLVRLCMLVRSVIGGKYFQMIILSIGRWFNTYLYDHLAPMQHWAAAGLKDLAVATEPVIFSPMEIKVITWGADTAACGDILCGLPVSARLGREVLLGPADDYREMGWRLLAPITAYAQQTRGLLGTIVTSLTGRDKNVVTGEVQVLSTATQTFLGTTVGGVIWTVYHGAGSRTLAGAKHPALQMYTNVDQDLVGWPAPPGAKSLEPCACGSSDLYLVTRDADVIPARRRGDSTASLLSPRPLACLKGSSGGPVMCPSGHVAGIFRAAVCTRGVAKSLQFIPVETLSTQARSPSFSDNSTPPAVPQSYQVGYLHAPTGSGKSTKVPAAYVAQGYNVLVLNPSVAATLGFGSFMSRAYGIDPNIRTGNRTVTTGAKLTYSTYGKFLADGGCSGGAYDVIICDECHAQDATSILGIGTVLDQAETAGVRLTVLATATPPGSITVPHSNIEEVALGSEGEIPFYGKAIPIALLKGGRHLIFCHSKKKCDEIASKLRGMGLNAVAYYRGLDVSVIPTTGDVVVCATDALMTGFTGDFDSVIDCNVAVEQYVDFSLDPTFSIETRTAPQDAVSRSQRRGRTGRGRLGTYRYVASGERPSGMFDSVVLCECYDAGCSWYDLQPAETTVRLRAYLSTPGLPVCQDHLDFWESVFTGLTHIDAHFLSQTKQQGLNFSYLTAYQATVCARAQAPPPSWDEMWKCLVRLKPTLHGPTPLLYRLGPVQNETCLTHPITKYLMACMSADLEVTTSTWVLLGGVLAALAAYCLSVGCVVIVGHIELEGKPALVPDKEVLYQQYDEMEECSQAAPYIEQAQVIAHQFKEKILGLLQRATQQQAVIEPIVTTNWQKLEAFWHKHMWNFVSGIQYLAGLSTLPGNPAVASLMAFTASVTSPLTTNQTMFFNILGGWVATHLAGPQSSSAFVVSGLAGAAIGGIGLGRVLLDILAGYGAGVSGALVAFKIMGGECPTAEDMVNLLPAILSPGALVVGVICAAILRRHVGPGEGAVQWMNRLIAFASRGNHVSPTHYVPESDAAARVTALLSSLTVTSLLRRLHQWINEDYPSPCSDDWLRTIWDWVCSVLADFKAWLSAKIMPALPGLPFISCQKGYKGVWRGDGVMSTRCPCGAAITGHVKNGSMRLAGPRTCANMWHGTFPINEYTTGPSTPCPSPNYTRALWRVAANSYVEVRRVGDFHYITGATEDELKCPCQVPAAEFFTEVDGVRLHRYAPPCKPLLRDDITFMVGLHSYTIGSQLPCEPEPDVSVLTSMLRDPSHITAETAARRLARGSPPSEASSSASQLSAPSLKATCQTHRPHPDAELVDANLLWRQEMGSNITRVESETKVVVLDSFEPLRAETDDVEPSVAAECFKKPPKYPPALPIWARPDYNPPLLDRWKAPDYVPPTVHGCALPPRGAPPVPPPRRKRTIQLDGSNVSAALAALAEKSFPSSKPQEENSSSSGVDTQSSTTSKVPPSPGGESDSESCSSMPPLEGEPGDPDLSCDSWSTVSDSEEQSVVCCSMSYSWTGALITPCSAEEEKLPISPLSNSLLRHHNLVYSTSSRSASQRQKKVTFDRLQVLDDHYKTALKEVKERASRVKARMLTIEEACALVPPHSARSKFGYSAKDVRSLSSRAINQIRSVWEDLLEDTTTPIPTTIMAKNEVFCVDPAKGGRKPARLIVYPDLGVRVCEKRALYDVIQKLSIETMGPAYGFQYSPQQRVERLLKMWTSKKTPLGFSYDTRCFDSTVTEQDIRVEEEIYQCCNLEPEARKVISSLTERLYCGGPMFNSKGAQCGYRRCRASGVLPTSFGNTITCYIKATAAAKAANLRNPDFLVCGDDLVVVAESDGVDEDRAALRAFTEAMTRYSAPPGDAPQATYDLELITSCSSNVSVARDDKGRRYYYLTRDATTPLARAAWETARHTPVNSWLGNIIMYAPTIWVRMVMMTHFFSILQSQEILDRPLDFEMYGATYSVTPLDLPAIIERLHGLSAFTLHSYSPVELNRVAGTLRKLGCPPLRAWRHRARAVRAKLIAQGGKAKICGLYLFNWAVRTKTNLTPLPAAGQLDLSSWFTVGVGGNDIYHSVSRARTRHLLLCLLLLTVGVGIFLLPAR

The term Ki denotes the equilibrium dissociation constant of an inhibitor or competing ligand from its target. For orientation: EC50 means the concentration giving half of the maximal effect. As for `CC[C@@H]1[C@@H]2CN(C(=O)[C@H](C(C)(C)C)NC(=O)O[C@@H]3C[C@H]3CC/C=C/C(F)(F)c3nc4ccc(OC)cc4nc3O2)[C@@H]1C(=O)N[C@]1(C(=O)NS(=O)(=O)C2(C)CC2)C[C@H]1C(F)F` [Example 89], the Ki in assay [1] was determined as 0.05 nM. Further, the concentration giving a half-maximal response (EC50) in assay [2] was found to be 6 nM; in assay [3], 5.5 nM; in [4], 3.2 nM; in assay [5] (setting [12]), 4.6 nM; in assay [6] (setting [13]), 3.7 nM; in assay [7], 6 nM. The EC50 came out at 19 nM in assay [8] (setting [14]), 6.1 nM in assay [9], 4.3 nM in assay [10] and 5.1 nM in assay [11] (setting [15]).

In turn, `COc1ccc2nc3c(nc2c1)O[C@H]1CN(C(=O)[C@H](C(C)(C)C)NC(=O)O[C@@H]2CCCC[C@H]2CCCCC3(F)F)[C@H](C(=O)N[C@]2(C(=O)NS(=O)(=O)C3CC3)C[C@H]2C(F)F)[C@@H]1C` [Example 68, (4aR,8S,11 S,12S,13R,25aS)-8-tert-butyl-N-[(1R,2R)-1-[(cyclopropylsulfonyl)carbamoyl]-2-(difluoromethyl)cyclopropyl]-21,21-difluoro-17-methoxy-12-methyl-6,9-dioxo-2,3,4,4a,6,7,8,9,12,13,21,22,23,24,25,25a-hexadecahydro-1H,11H-10,13-methanoquinoxalino[2,3-k][1,10,3,6]benzodioxadiazacyclononadecine-11-carboxamide] registered a Ki in assay [1] of 0.63 nM. For the same compound, the EC50 in assay [2] (Hepatitis C virus) amounted to 14 nM; in assay [3] (Hepatitis C virus), 139 nM; in [4] (Hepatitis C virus), 4.4 nM; in assay [5] (Hepatitis C virus), 9.4 nM; in assay [6] (setting [16]), 37 nM; in assay [7] (Hepatitis C virus) it was 13 nM. For the same compound, the EC50 in [8] (Hepatitis C virus) worked out at 364 nM; in assay [9] (Hepatitis C virus) it was 7.7 nM; in assay [10] (Hepatitis C virus), 18 nM; in assay [11] (setting [17]) it was 78 nM.

On to `CC[C@@H]1[C@@H]2CN(C(=O)[C@H](C(C)(C)C)NC(=O)O[C@]3(C(F)(F)F)CCCC3CCCCCc3nc4ccc(OC)cc4nc3O2)[C@@H]1C(=O)N[C@]1(C(=O)NS(=O)(=O)C2(C)CC2)C[C@H]1C(F)F` (stereo partly drawn) [Example 9, (7S,10S,11S,12R)-7-tert-butyl-N-[(1R,2R)-2-(difluoromethyl)-1-{[(1-methylcyclopropyl)sulfonyl]carbamoyl}cyclopropyl]-11-ethyl-16-methoxy-5,8-dioxo-3aR-(trifluoromethyl)-1,2,3,3a,5,6,7,8,11,12,20,21,22,23,24,24a-hexadecahydro-10H-9,12-methanocyclopenta[18,19][1,10,3,6]dioxadiazacyclononadecino[11,12-b]quinoxaline-10-carboxamide], for which, in assay [1], the Ki was determined as 0.59 nM. Further, the EC50 in [2] was determined as 12 nM; in assay [4] it was 2.5 nM; in assay [5] (setting [12]), 11 nM; in assay [6] (setting [13]), 208 nM; in assay [7], 17 nM; in assay [8] (setting [14]), 1270 nM. For the same compound, the concentration giving a half-maximal response (EC50) in [9] was found to be 7.9 nM; in [10] it was 23 nM; in [11] (setting [15]) it was 360 nM.

`CC[C@@H]1[C@@H]2CN(C(=O)[C@H](C(C)(C)C)NC(=O)O[C@@]3(C(F)(F)F)CCC[C@H]3CCCCCc3nc4ccc(OC)cc4nc3O2)[C@@H]1C(=O)N[C@]1(C(=O)NS(=O)(=O)C2CC2)C[C@H]1C(F)F` [Example 12, (7S,10S,11S,12R)-7-tert-butyl-N-[(1R,2R)-1-[(cyclopropylsulfonyl)carbamoyl]-2-(difluoromethyl)cyclopropyl]-11-ethyl-16-methoxy-5,8-dioxo-3aS-(trifluoromethyl)-1,2,3,3a,5,6,7,8,11,12,20,21,22,23,24,24a-hexadecahydro-10H-9,12-methanocyclopenta[18,19][1,10,3,6]dioxadiazacyclononadecino[11,12-b]quinoxaline-10-carboxamide] gave a Ki in assay [1] of 1.2 nM. For the same compound, the EC50 was found to be 14 nM in assay [2]; 5.7 nM in assay [4]; 21 nM in assay [5] (setting [12]); 283 nM in assay [6] (setting [13]); 34 nM in assay [7]; 2010 nM in assay [8] (setting [14]). Further, the results for the EC50 in assay [9], in assay [10] and in assay [11] (setting [15]) were 18 nM, 25 nM and 640 nM, respectively.

`COc1ccc2nc3c(nc2c1)O[C@H]1CN(C(=O)[C@H](C(C)(C)C)NC(=O)O[C@@H]2CCC[C@H]2CCCCC3)[C@H](C(=O)N[C@]2(C(=O)NS(=O)(=O)C3(C)CC3)C[C@H]2C(F)F)[C@@H]1C` [Example 27, (3aR,7S10S,1S,12R,24aR)-7-tert-butyl-N-[(1R,2R)-2-(difluoromethyl)-1-{[(1-methylcyclopropyl)sulfonyl]carbamoyl}cyclopropyl]-16-methoxy-11-methyl-5,8-dioxo-1,2,3,3a,5,6,7,8,11,12,20,21,22,23,24,24a-hexadecahydro-10H-9,12-methanocyclopenta[18,19][1,10,3,6]dioxadiazacyclononadecino[11,12-b]quinoxaline-10-carboxamide] displayed a Ki in assay [1] of 0.08 nM. The EC50 was 6 nM in [2] (Hepatitis C virus); 4.3 nM in assay [4] (Hepatitis C virus); 6.1 nM in assay [5] (Hepatitis C virus); 20 nM in assay [6] (setting [16]); 6.6 nM in [7] (Hepatitis C virus); 266 nM in assay [8] (Hepatitis C virus). The EC50 in [9] (Hepatitis C virus) amounted to 5.2 nM; in assay [10] (Hepatitis C virus) it was 6.7 nM; in assay [11] (setting [17]) it was 70 nM.
